Reference: patent US7368582B2, “Amidomethyl-substituted 2-(4-sulfonylamino)-3-hydroxy-3,4-dihydro-2H-chromen-6-yl compounds, a process and intermediates for their production, and pharmaceutical compositions containing them” (Solvay Pharmaceuticals GmbH, priority 2003, dated 2008)

Columns and labels:
[1] = system: left atrium of rats' hearts; assay: Functional refractory period prolongation on isolated left atria of rats' hearts in vitro; design: species or system rat (Sprague-Dawley); conditions: 10 μM
Description: 3. Investigation of the Functional Effectiveness of the Substances on the Atrium of Rats' Hearts in Vitro
In this test model it is determined to what extent the Kv 1.5-blocking substances of Formula I result in a prolongation of the functional refractory period in the left atrium of rats. The refractory period is the minimum possible elapsed time between the basic stimulus and additional stimulus in which a renewed contraction can be triggered. The extent of the prolongation of the functional refractory period is a measurement of the antiarrhythmic effectiveness of the substances according to the invention. The functional refractory period is determined by testing on the electrically stimulated preparation at what elapsed time from the preceding contraction a renewed contraction can be triggered by additional electrical stimuli.
The hearts were removed from freshly sacrificed rats (Sprague-Dawley, Charles-River, Germany). The left atria were isolated and fastened to force transducers in a temperature-controlled (30° C.), gasified (O2 95%, CO2 5%) organ bath which was filled with modified Tyrode solution (all values in mM: NaCl 137; KCl 2.7; CaCl2 1.8; MgCl2 0.8; NaHCO3 11.9; NaH2PO4 0.6; glucose 5). In order to trigger regular contractions, the preparations were electrically stimulated (rectangular pulses, pulse magnitude 3.5× threshold stimulus, pulse width 1.5 ms, frequency 1 Hz). Initially, the initial value of the functional refractory period was determined by applying extra pulses in addition to the basic stimulus, the elapsed time from the preceding basic stimulus being shortened until no further additional contraction could be triggered. Then the cumulative addition of increasing concentrations (0.1-10 μM) of the substances of Formula I took place at intervals of 20 min. each, the refractory period being determined again in each case 18 min. after the addition had taken place. Before the measurement, stock solutions of the test substances (3.2 and 0.32 mM in 100% DMSO) were prepared. In order to achieve the desired final concentrations of the substances (0.1-10 μM) in the organ bath (volume 100 ml), corresponding volumes of these stock solutions were then poured into the organ bath.
In each case the prolongation of the functional refractory period (FRP) in the left atrium of the rats' hearts in milliseconds observed after the addition of 10 μM of the respective substance of Formula I to the atrial preparations was given as characteristic variable.

ventricle of guinea pigs = assay: Functional effectiveness on guinea-pig hearts in vivo (ERP, QT, QRS, systolic blood pressure); design: species or system guinea pig (Dunkin-Hartley); conditions: 1 min. after 10 μmole/kg i.v.; for QRS / QT / syst. blood pressure (change): guinea pigs; for syst. blood pressure (change): minus effects due to the vehicle, negative values indicate reduction; for ERP: ventricle of guinea pigs, negative values indicate shortening
Excerpt: 4. Investigation of the Functional Effectiveness of the Substances on Guinea-Pig Hearts in Vivo
In the test model shown below, it was shown that the substances according to the invention at most have slight undesirable proarrhythmic effects on repolarization in the ventricle. To this end, the influence of the compounds of Formula I on the effective refractory period (ERP) and other influencing variables on guinea-pig hearts in vivo were investigated. In this test model, non-selective potassium channel blockers not in accordance with the invention, which also block HERG and/or KvLQT1 channels, result in undesirable prolongation of the ERP and the QT time on an electrocardiogram (═ECG). The QT time is likewise a measurement of the repolarization in the heart. Prolongations of both the ERP and the QT time, respectively, which are due to the substances were independently interpreted as indications of the risk of the occurrence of undesirable torsade-de-pointes arrhythmias. Furthermore, the QRS interval also was determined in each case from the ECG as a measurement of the ventricular rate of spread of stimulus. Even a prolongation of the QRS interval caused by a test substance is connected with an increased risk of undesirable pro-arrhythmic side-effects. Therefore in this test model the lack of an ERP and QT time prolongation signifies a low risk, but the occurrence of a relevant ERP and QT prolongation on the other hand signifies an elevated risk of undesirable pro-arrhythmic effects. Also the lack of a prolongation of the QRS interval which is due to the substances due to the substances of Formula I investigated indicates a low risk of undesirable pro-arrhythmic side-effects, since lack of QRS prolongation indicates an undisturbed spread of stimulus in the ventricle. Conversely, a QRS prolongation, which is typically triggered by Class I antiarrhythmic drugs indicates slowing of the conduction rate and may promote the occurrence of ventricular tachycardias to ventricular fibrillation.
Male guinea pigs (Dunkin-Hartley from Charles River) were anaesthetized (ketamine 50 mg/kg, xylazine 10 mg/kg) and each of them was provided with a venous access via one jugular vein for administration of compounds of Formula I or a vehicle. A bipolar stimulation catheter was fed into the right ventricle of the guinea pigs via the other jugular vein (stimulation frequency 5 Hz). The arterial blood pressure was measured by a catheter located in the carotid artery which was connected to a Statham pressure transducer. The ECG was recorded via needle electrodes. The measured data were digitized via an analog/digital converter, recorded on a computer with suitable software (Ponemah Physiology Platform from Gould, USA) and printed out in parallel on a multichannel printer. After an equilibration period of 45 min., increasing doses of the compounds of Formula I or of the vehicle were administered intravenously (=i.v.) to the guinea pigs at 12-minute intervals. Before the first administration and in each case one minute after administration of increasing doses (0.1−max. 30 μmole/kg) of the substances of Formula I, the effective refractory period was measured. For this, after five normal stimuli in each case an additional pulse was applied and the elapsed time thereof from the preceding pulse was increased until a heart action was triggered. The observed time interval corresponds to the ERP of the ventricular myocardium.
In order to detect possible effects of the test substances on the blood pressure, in the same test model after each administration of substance the systolic and diastolic blood pressure was determined and compared with the previous blood-pressure level. The parameters were recorded automatically 1 and 8 min. after each administration of substance.
Only statistically significant effects were listed, with a t-test with a significance limit of P<0.05 being used for the statistical testing.

Compound | FRP prolongation [1] [ms] | QRS (ventricle of guinea pigs) | QT (ventricle of guinea pigs) | syst. blood pressure (change) (ventricle of guinea pigs) | ERP (ventricle of guinea pigs)
CCc1ccc(S(=O)(=O)N(CC(C)(C)C)C2c3cc(CC(=O)NCCc4ccccc4)ccc3OC(C)(C)C2O)cc1 (stereo not drawn) [Example 10] | 20 | n.s. | n.s. | −15.9 mm Hg | -8.0 ms
CCc1ccc(S(=O)(=O)N(CC(C)(C)C)[C@H]2c3cc(CC(=O)NCc4ccccc4)ccc3OC(C)(C)[C@@H]2O)cc1 [Example 8] | 17 | n.s. | n.s. | −10.7 mm Hg | n.s.
CCc1ccc(S(=O)(=O)N[C@@H]2c3cc(CC(=O)N[C@H]4CCCc5ccccc54)ccc3OC(C)(C)[C@H]2O)cc1 [Example 9] | 30 | – | – | – | –
CCc1ccc(S(=O)(=O)N[C@@H]2c3cc(CC(=O)N[C@@H]4CCCc5ccccc54)ccc3OC(C)(C)[C@H]2O)cc1 [Example 2, 2-((3S,4R)-4-{[(4-ethylphenyl)sulfonyl]amino}-3-hydroxy-2,2-dimethyl-3,4-dihydro-2H-chromen-6-yl)-N-[(1R)-1,2,3,4-tetrahydronaphth-1-yl]acetamide] | 20 | n.s. | n.s. | n.s. | n.s.
CCc1ccc(S(=O)(=O)N(CC(C)(C)C)C2c3cc(CC(=O)NCc4ccccc4)ccc3OC(C)(C)C2O)cc1 (stereo not drawn) [Example 4, N-benzyl-2-{4-[[(4-ethylphenyl)sulfonyl](neopentyl)amino]-3-hydroxy-2,2-dimethyl-3,4-dihydro-2H-chromen-6-yl}acetamide] | 17 | n.s. | n.s. | n.s. | n.s.
CCc1ccc(S(=O)(=O)NC2c3cc(CC(=O)N4CCN(c5ccccc5)CC4)ccc3OC(C)(C)C2O)cc1 (stereo not drawn) [Example 16] | 20 | n.s. | n.s. | −8.6 mm Hg | -7.5 ms
CC1(C)Oc2ccc(CC(=O)NC3CCCc4ccccc43)cc2C(NS(=O)(=O)c2cccc(F)c2)C1O (mixture of isomers) [Example 13] | 28 | n.s. | n.s. | n.s. | n.s.
CCc1ccc(S(=O)(=O)N(CC(C)(C)C)[C@@H]2c3cc(CC(=O)NCc4ccccc4)ccc3OC(C)(C)[C@H]2O)cc1 [Example 7] | 24 | n.s. | n.s. | −15.3 mm Hg | -8.2 ms
